Measurements from publication PMC12307932, “Convergent evolution of distinct D-ribulose utilisation pathways in attaching and effacing pathogens” (Nature Communications, 2025).
Read-outs that look alike come from different tables or passages of the source.

Biological target: T1, AauA (Escherichia coli, UniProt Q8X6A6)
T1 construct: gene ECs_0374
Assay: isothermal titration calorimetry
Format: binding

T1 sequence (Q8X6A6 29-328 limits assumed): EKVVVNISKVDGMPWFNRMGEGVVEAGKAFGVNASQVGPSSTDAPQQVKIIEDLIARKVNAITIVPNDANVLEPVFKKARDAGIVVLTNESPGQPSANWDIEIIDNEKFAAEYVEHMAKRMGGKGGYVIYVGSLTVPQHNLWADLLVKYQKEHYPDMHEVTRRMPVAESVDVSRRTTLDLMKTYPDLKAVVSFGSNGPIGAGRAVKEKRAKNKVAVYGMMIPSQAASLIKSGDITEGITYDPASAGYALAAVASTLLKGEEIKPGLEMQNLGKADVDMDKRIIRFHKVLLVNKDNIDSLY

Row | Structure (SMILES) | Kd | Kd (50 mM HEPES, 150 mM NaCl, pH 7.0, 25 °C, 70 µM AauA, single-site model)
1 | O=C(CO)[C@H](O)[C@H](O)CO [D-ribulose] | 1.98 ± 0.3 µM | –
2 | OC1OC[C@H](O)[C@H](O)[C@H]1O (some centres unmarked) [ʟ-arabinose] | – | 598 ± 132 µM
